Biological target: recombinant human PAI-1 (Homo sapiens, UniProt P05121)
Test: biochemical
Details: read-out: Inhibition Rate of PAI Activity (%)
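Further: PAI-1 preincubated with compound, then two-chain tPA added, residual tPA activity read with fluorogenic Pyr-Gly-Arg-MCA substrate after 30 min at room temperature.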

recombinant human PAI-1, sequence (P05121 24-402): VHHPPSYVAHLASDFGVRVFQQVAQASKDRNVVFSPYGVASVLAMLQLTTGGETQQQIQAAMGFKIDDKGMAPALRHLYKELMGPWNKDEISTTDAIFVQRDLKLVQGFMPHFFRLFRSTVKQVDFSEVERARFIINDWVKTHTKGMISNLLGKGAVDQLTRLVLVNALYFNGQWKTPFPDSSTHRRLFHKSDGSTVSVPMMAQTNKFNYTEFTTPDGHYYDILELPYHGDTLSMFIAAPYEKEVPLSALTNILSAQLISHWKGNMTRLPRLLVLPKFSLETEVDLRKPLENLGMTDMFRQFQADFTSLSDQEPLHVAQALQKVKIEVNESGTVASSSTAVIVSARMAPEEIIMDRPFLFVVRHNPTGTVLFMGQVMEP

| inhibition at 10 µM [%] | inhibition at 25 µM [%] | Compound | inhibition at 5 µM [%] |
| --- | --- | --- | --- |
| 46 | 96 | O=C(O)CCc1cc(-c2ccc(OC(F)(F)F)cc2)ccc1Oc1ccc(OC(F)(F)F)cc1 [Compound 16] | 23 |
| 11 | 70 | O=C(O)CCc1cc(-c2ccc(OC(F)(F)F)cc2)ccc1OCc1ccccc1C(F)(F)F [Compound 21] | – |

| Compound | inhibition at 10 µM [%] | inhibition at 25 µM [%] | inhibition at 5 µM [%] |
| --- | --- | --- | --- |
| Cc1cc(C)cc(COc2ccc(-c3ccc(OC(F)(F)F)cc3)cc2CCC(=O)O)c1 [Compound 59] | 53 | 77 | 25 |

Same assay, conditions: read-out: Inhibition Rate of PAI-1 Activity (%)

| inhibition at 5 µM [%] | inhibition at 10 µM [%] | inhibition at 25 µM [%] | inhibition at 0.5 µM [%] | inhibition at 1 µM [%] | Compound |
| --- | --- | --- | --- | --- | --- |
| 43 | 80 | 98 | – | – | CC(C)Oc1ccc(N(CCCc2ccccc2)C(=O)C(=O)O)c(-c2ccc(OC(F)(F)F)cc2)c1 [Compound 239] |
| 81 | 98 | 94 | – | – | CC(C)Oc1ccc(N(Cc2ccc(C(C)(C)C)cc2)C(=O)C(=O)O)c(-c2ccc(OC(F)(F)F)cc2)c1 [Compound 209] |
| 48 | 83 | 92 | – | – | CC(C)(C)c1ccc(CN(C(=O)C(=O)O)c2cccc(OCc3ccc(OC(F)(F)F)cc3)c2)cc1 [Compound 619] |
| 88 | 94 | – | – | – | CCCCCOc1ccc(-c2ccc(OC(F)(F)F)cc2)cc1N(CCCCCc1ccccc1)C(=O)C(=O)O [Compound 242] |
| 64 | 87 | 95 | – | – | CCC(Oc1ccc(-c2ccc(OC(F)(F)F)cc2)cc1Oc1ccc(C(C)(C)C)cc1)C(=O)O (stereo not shown) [Compound 114] |
| 22 | 46 | 92 | – | – | CC(C)(C)c1ccc(COc2ccc(Nc3ccc(OC(F)(F)F)cc3)cc2CCC(=O)O)cc1 [Compound 412] |
| 44 | 79 | 84 | – | – | CC(C)(C)c1ccc(CN(C(=O)C(=O)O)c2ccc(-c3ccc(OC(F)(F)F)cc3)c(C(F)(F)F)c2)cc1 [Compound 166] |
| 31 | 66 | 99 | – | – | CC(C)(C)c1ccc(Oc2ccc(Oc3ccc(OC(F)(F)F)cc3)cc2/C=C/C(=O)O)cc1 [Compound 99] |
| – | 11 | 29 | – | – | O=C(O)C(=O)N(Cc1ccc(OC(F)(F)F)cc1)c1ccc(-c2ccccc2)cc1 [Compound 183] |
| 46 | 87 | 95 | – | – | CC(C)(C)c1ccc(Oc2cc(Oc3ccc(OC(F)(F)F)cc3)ccc2/C=C/C(=O)O)cc1 [Compound 89] |
| – | 3 | 20 | – | – | O=C(O)C(=O)N(Cc1ccccc1)c1ccc(Oc2ccc(OC(F)(F)F)cc2)cc1 [Compound 154] |
| 77 | 93 | > 99 | – | – | CC(C)(C)c1ccc(-c2ccc(Oc3ccc(-c4ccc(OC(F)(F)F)cc4)cc3CCC(=O)O)c(CCC(=O)O)c2)cc1 [Compound 541] |
| 52 | 86 | 95 | – | – | CC(OCC(=O)O)c1cc(-c2ccc(OC(F)(F)F)cc2)ccc1OCc1ccc(C(C)(C)C)cc1 (stereo not shown) [Compound 108] |
| 66 | 89 | 93 | – | – | CCCCOc1ccc(-c2ccc(OC(F)(F)F)cc2)cc1N(CCCc1ccccc1)C(=O)C(=O)O [Compound 235] |
| 75 | 88 | 84 | – | – | CC(C)(C)c1ccc(CN(C(=O)C(=O)O)c2ccc(N3CCOCC3)c(-c3ccc(OC(F)(F)F)cc3)c2)cc1 [Compound 216] |
| 25 | 63 | 97 | – | – | CC(C)(C)c1ccc(COc2c(Cl)cc(-c3ccc(OC(F)(F)F)cc3)cc2CCC(=O)O)cc1 [Compound 92] |
| – | 5 | 52 | – | – | Cc1ccc(-c2ccc(N(Cc3ccc(C(C)(C)C)cc3)C(=O)C(=O)O)cc2)cc1 [Compound 141] |
| 10 | 25 | 67 | – | – | CC(C)(C)c1ccc(-c2ccc(N(Cc3ccccc3)C(=O)C(=O)O)cc2)cc1 [Compound 156] |
| 59 | 92 | 91 | – | – | Cc1ccc(N(Cc2ccc(C(C)(C)C)cc2)C(=O)C(=O)O)cc1OCc1ccc(OC(F)(F)F)cc1 [Compound 625] |
| 25 | 53 | 91 | – | – | CC(C)(C)c1ccc(COc2cc(-c3ccc(OC(F)(F)F)cc3)ccc2/C=C/C(=O)O)cc1 [Compound 75] |
| 38 | 73 | 94 | – | – | CC(C)(C)c1ccc(N(C(=O)C(=O)O)c2cccc(Oc3ccc(OC(F)(F)F)cc3)c2)cc1 [Compound 170] |
| 33 | 57 | 89 | – | – | O=C(O)CCc1cc(-c2ccc(OC(F)(F)F)cc2)ccc1OCCCOc1ccccc1 [Compound 103] |
| 42 | 64 | 89 | – | – | O=C(O)C(=O)N(CCCCc1ccccc1)c1ccc(N2CCOCC2)c(-c2ccc(OC(F)(F)F)cc2)c1 [Compound 243] |
| – | 4 | 61 | – | – | Cc1ccc(-c2cccc([N+](=O)[O-])c2)cc1N(Cc1ccc(C(C)(C)C)cc1)C(=O)C(=O)O [Compound 138] |

| inhibition at 5 µM [%] | inhibition at 10 µM [%] | inhibition at 25 µM [%] | inhibition at 0.5 µM [%] | inhibition at 1 µM [%] | Compound |
| --- | --- | --- | --- | --- | --- |
| 75 | 92 | 88 | – | – | Cc1ccc(N(Cc2ccc(C(C)(C)C)cc2)C(=O)C(=O)O)cc1Oc1ccc(OC(F)(F)F)cc1 [Compound 187] |
| 10 | 11 | 31 | – | – | O=C(O)C(=O)N(Cc1ccc(O)cc1)c1ccc(-c2ccc(OC(F)(F)F)cc2)cc1 [Compound 181] |
| 67 | – | – | 0 | 14 | CC(C)(C)c1ccc(Oc2ccc(-c3ccc(OC(F)(F)F)cc3)cc2CCC(=O)O)c(CCC(=O)O)c1 [Compound 542] |
| 3 | 22 | 76 | – | – | O=C(O)C(=O)N(Cc1ccc(Cl)cc1Cl)c1ccc(-c2ccc(OC(F)(F)F)cc2)cc1 [Compound 144] |
| 27 | 64 | 96 | – | – | CC(C)(C)c1ccc(N(C(=O)C(=O)O)c2ccc(Oc3ccc(OC(F)(F)F)cc3)cc2)cc1 [Compound 165] |
| 30 | 40 | 53 | – | – | O=C(O)/C=C/c1c(Oc2ccc(OC(F)(F)F)cc2)cccc1Oc1ccc(OC(F)(F)F)cc1 [Compound 97] |
| 75 | 92 | – | – | – | CCC(CC)Oc1ccc(N(CCCc2ccccc2)C(=O)C(=O)O)c(-c2ccc(OC(F)(F)F)cc2)c1 [Compound 237] |
| 75 | 93 | 99 | – | – | CC(C)(C)c1ccc(Oc2cc(-c3ccc(OC(F)(F)F)cc3)ccc2OC(F)C(=O)O)cc1 (stereo not shown) [Compound 119] |
| 59 | 91 | 84 | – | – | CC(C)(C)c1ccc(CN(C(=O)C(=O)O)c2ccc(C(F)(F)F)cc2-c2ccc(OC(F)(F)F)cc2)cc1 [Compound 169] |
| 39 | 84 | 90 | – | – | CC(C)(C)c1ccc(Oc2cc(-c3ccc(OC(F)(F)F)cc3)ccc2/C=C/C(=O)O)cc1 [Compound 79] |
| 33 | 73 | 90 | – | – | Cc1cc(-c2ccc(OC(F)(F)F)cc2)ccc1N(Cc1ccc(C(C)(C)C)cc1)C(=O)C(=O)O [Compound 146] |
| 66 | 94 | 87 | – | – | CC(C)(C)c1ccc(CN(C(=O)C(=O)O)c2cc(Oc3ccc(OC(F)(F)F)cc3)cc(C(F)(F)F)c2)cc1 [Compound 175] |
| 29 | 53 | 86 | – | – | O=C(O)C(=O)N(CCCc1ccccc1)c1ccc(-c2ccc(OC(F)(F)F)cc2)cc1 [Compound 224] |
| 44 | 72 | 88 | – | – | CC(C)(C)c1ccc(CN(C(=O)C(=O)O)c2ccc(OCc3ccc(OC(F)(F)F)cc3)c(OCc3ccc(OC(F)(F)F)cc3)c2)cc1 [Compound 622] |
| 93 | 97 | – | – | – | CCCCCCOc1ccc(-c2ccc(OC(F)(F)F)cc2)cc1N(CCCCc1ccccc1)C(=O)C(=O)O [Compound 245] |
| 27 | 50 | 88 | – | – | O=C(O)C(=O)N(CCCCc1ccccc1)c1ccc(-c2ccc(OC(F)(F)F)cc2)cc1 [Compound 225] |
| 37 | 75 | 87 | – | – | CCCCc1ccc(CN(C(=O)C(=O)O)c2ccc(-c3ccc(OC(F)(F)F)cc3)cc2)cc1 [Compound 167] |
| 26 | 59 | 98 | – | – | COc1cc(-c2ccc(OC(F)(F)F)cc2)cc(CCC(=O)O)c1OCc1ccc(C(C)(C)C)cc1 [Compound 82] |
| 56 | 88 | 88 | – | – | Cc1cc(-c2ccc(OC(F)(F)F)cc2)cc(N(Cc2ccc(C(C)(C)C)cc2)C(=O)C(=O)O)c1 [Compound 178] |
| 64 | 89 | 82 | – | – | CC(C)(C)c1ccc(CN(C(=O)C(=O)O)c2ccc(-c3ccccc3OC(F)(F)F)cc2)cc1 [Compound 201] |
| 69 | 91 | 97 | – | – | CC(C)(C)c1ccc(-c2ccc(N(Cc3cccc(OC(F)(F)F)c3)C(=O)C(=O)O)cc2)cc1 [Compound 203] |
| 43 | 83 | 91 | – | – | Cc1c(-c2ccc(OC(F)(F)F)cc2)cccc1N(Cc1ccc(C(C)(C)C)cc1)C(=O)C(=O)O [Compound 177] |
| 32 | 72 | 98 | – | – | CC(C)c1ccc(Oc2ccc(/C=C/C(=O)O)c(Oc3ccc(C(C)C)cc3)c2)cc1 [Compound 72] |
